Experimental data: PMC8752837, “Structural basis of BAK activation in mitochondrial apoptosis initiation” (Nature Communications, 2022)
Where two headings read alike, the source gives them in different places.

Tests used:
I81A(3) BAK = assay: Liposome permeabilization assay: BH3 peptide activation of I81A(3) BAK receptor; format: biochemical, human; conditions: 50 nM mutant BAK; Suppl. Fig. 4f
Protocol: (§1) We performed liposome permeabilization assays as previously described[43]-[46]. […] We mixed the lipid film in ANTS/DPX solution by vortexing and sonication (~15 min) followed by extrusion through polycarbonate membrane of 2 μm pore size (Avanti Polar lipids) to generate homogenous large unilamellar vesicles (LUVs). We separated LUVs from free ANTS/DPX by S500 size exclusion chromatography and stored them at 4 °C in the dark. We prepared peptide and protein dilutions in 96-well black flat bottom plates (Costar) kept on ice. […] We quantified liposome permabilization by integrating area under curve (AUC) of normalized traces based on the Simpson's equation, and analyzed that data in Excel and GraphPad Prism. AUC measurements reflect the kinetic and extent of liposome permeabilization and provide quantitative means for comparison between different experimental conditions (e.g., BAK mutants with gross or partial variation in activity). Variability in permeabilization of different liposomes is common and our analyses compare among conditions investigated with the same liposomes. Although the absolute permeabilization values may differ, the trends for the same conditions are always very similar between different liposomes.

I81R BAK = biological target: T1, I81R BAK (Homo sapiens, UniProt Q16611, I81R); assay: Isothermal titration calorimetry with mutant BAK; format: binding; conditions: KD could not be obtained by ITC or SPR
T1 construct: To generate tevBAK (residues 22–186), we cleaved off the histidine tag with TEV protease; His tag (vector pNIC28-Bsa4) (N, cleaved yes); made in house; host or cells: E. coli T7 Express pLac I/Y
T1 sequence (Q16611 22-186 I81R): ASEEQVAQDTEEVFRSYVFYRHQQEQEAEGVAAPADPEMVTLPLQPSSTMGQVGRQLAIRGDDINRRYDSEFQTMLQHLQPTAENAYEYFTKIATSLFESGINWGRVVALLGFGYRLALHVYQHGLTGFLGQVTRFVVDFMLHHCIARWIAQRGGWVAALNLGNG
Protocol: Protein samples were exchanged into 20 mM HEPES, 100 mM NaCl and 1 mM TCEP prior to the experiment. Titrations were performed by first injecting 0.5 μl of 250 or 500 µM BID BH3 peptides into a solution of 20 or 50 µM BAK followed by additional 2 μl injections. […] Results were analyzed using Origin software (OriginLab) provided by MicroCal. Binding constants (KD) and thermodynamic parameters were calculated from the average of two or three individual titrations by fitting the data to a single site binding model using a nonlinear least-squares fitting algorithm.

V74A(1) BAK = assay: Liposome permeabilization assay: BH3 peptide activation of V74A(1) BAK receptor; format: biochemical, human; conditions: Suppl. Figs. 3e, 4d
Protocol: as §1

MEAS-BAK-His6 = biological target: T2, MEAS-BAK-His6 (Homo sapiens, UniProt Q16611); assay: Surface plasmon resonance; format: binding; conditions: 20 °C; for Kd: MEAS-BAK-His6 captured on Ni-NTA HisCap chip, three-fold peptide dilution series injected in triplicate, read-out: SPR KD
T2 construct: C-terminus truncated recombinant human BAK containing C-terminal 6× histidine tag (MEAS-BAK); made in house; host or cells: E. coli T7 Express pLac I/Y
T2 sequence (Q16611 1-186 limits assumed): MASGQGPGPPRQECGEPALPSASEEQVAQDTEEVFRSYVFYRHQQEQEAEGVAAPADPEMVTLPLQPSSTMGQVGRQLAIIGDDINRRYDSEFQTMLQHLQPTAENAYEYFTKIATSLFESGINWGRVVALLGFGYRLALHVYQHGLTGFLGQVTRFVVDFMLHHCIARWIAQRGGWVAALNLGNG
Protocol: We conducted SPR experiments at 20 °C using a Pioneer FE optical biosensor (ForteBio) amd histidine-tagged MEAS-BAK-His6 immobilized on polycarboxylate hydrogel-coated gold chips preimmobilized with nitrilotriacetic acid (HisCap chips; ForteBio). We primed the chip in chelating buffer (10 mM HEPES pH 7.4, 150 mM NaCl, 50 µM EDTA, 0.005% Tween20) and preconditioned it at 10 µL/min with three 60 s injections of wash buffer (10 mM HEPES pH 8.3, 150 mM NaCl, 350 mM EDTA, 0.05% Tween20) and one 60 s injection of chelating buffer before charging with a 60 s injection of 500 µM NiCl2 in chelating buffer. After priming into binding buffer (20 mM HEPES pH 8.0, 200 mM NaCl, 1 mM TCEP, 0.01% Tween20), we injected BAK to achieve ~500 RU of captured protein. As reference cell, we charged one flow cell on the chip with Ni^2+ without adding protein. […] We included a series of buffer-only (blank) injections throughout the experiment to account for instrumental noise. […] We processed, double-referenced, solvent corrected, and analyzed the data using the software package Qdat (version 4.3.1.2, ForteBio). We determined kinetic rate constants and affinities by fitting the data to a 1:1 interaction model.

Human BAK-∆TM-His6 (BAK) = biological target: T3, Human BAK-∆TM-His6 (BAK) (Homo sapiens, UniProt Q16611); assay: Liposome permeabilization assay (ANTS/DPX dye release from LUVs): activation of WT BAK by BH3 peptides;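 as to AUC for Experiment-2 (Mean): traces normalized between buffer minimum and 3% CHAPS maximum fluorescence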;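 as to AUC for Experiment-3 (Mean): traces normalized between buffer minimum and 3% CHAPS maximum fluorescence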; format: biochemical; set-up: AUC for Experiment-2 (Mean) / AUC for Experiment-3 (Mean) / AUC for Experiment-1 (Mean):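 traces normalized between buffer minimum and 3% CHAPS maximum fluorescence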; conditions: for EC50: 50 nM BAK; for AUC for Experiment-1 (Mean) / AUC for Experiment-2 (Mean) / AUC for Experiment-3 (Mean): AUC 0-88 mins of liposome permeabilization; for AUC for Experiment-1 (Mean): Experiment-1, mean of N replicates; for AUC for Experiment-2 (Mean): Experiment-2, mean of N replicates; for AUC for Experiment-3 (Mean): Experiment-3, mean of N replicates; for peptide concentration at which ligands activate WT BAK / lowest dose at which permeabilization is observed: liposome permeabilization; for peptide concentration at which ligands activate WT BAK: Suppl. Figs. 3e, 4d, e; for lowest dose at which permeabilization is observed: robust across experiments; for activation of WT BAK in liposome permeabilization assays: BAK BH3 peptide ligands, 50 nM WT BAK receptor
T3 construct: C-terminus truncated recombinant human BAK containing C-terminal 6× histidine tag (MEAS-BAK); made in house; host or cells: E. coli T7 Express pLac I/Y
T3 sequence (Q16611 1-186 limits assumed): T2 sequence (Q16611 1-186 limits assumed)

EC50 (Human BAK-∆TM-His6 (BAK); EC50 from AUC vs peptide dose, data in Supplementary Figure 4b, 37 °C, 90 min, read-out: Liposome permeabilization EC50) [nM] | EC50 (Human BAK-∆TM-His6 (BAK); peer review file, read-out: EC50 analysis of liposome permeabilization (rebuttal, earlier manuscript version)) [nM] | activation of WT BAK in liposome permeabilization assays (Human BAK-∆TM-His6 (BAK); listed as WT BAK BH3 peptide) | SMILES | liposome permeabilization by 50 nM I81A(3) BAK receptor (I81A(3) BAK) | affinity for I81R BAK extrapolated by applying 2-fold difference compared to WT (I81R BAK) | peptide concentration at which ligands activate V74A(1) BAK (V74A(1) BAK) | SPR kd (MEAS-BAK-His6; 1:1 interaction model) | kon (MEAS-BAK-His6; 1:1 interaction model, read-out: SPR ka) [M⁻¹ s⁻¹] | Kd (MEAS-BAK-His6; 1:1 interaction model) [nM] | SPR Rmax (MEAS-BAK-His6; ~500 RU captured BAK) [RU] | EC50 (Human BAK-∆TM-His6 (BAK); EC50 from AUC vs peptide dose, data in Supplementary Figure 7c, 37 °C, 90 min, read-out: Liposome permeabilization EC50) [nM] | AUC for Experiment-1 (Mean) (Human BAK-∆TM-His6 (BAK); 1 μM peptide + 50 nM BAK) | AUC for Experiment-2 (Mean) (Human BAK-∆TM-His6 (BAK); 1 μM peptide + 50 nM BAK) | AUC for Experiment-3 (Mean) (Human BAK-∆TM-His6 (BAK); 1 μM peptide + 50 nM BAK) | AUC for Experiment-1 (Mean) (Human BAK-∆TM-His6 (BAK); 50 μM peptide + 50 nM BAK) | AUC for Experiment-2 (Mean) (Human BAK-∆TM-His6 (BAK); 50 μM peptide + 50 nM BAK) | AUC for Experiment-3 (Mean) (Human BAK-∆TM-His6 (BAK); 50 μM peptide + 50 nM BAK) | peptide concentration at which ligands activate WT BAK (Human BAK-∆TM-His6 (BAK)) | lowest dose at which permeabilization is observed (Human BAK-∆TM-His6 (BAK)) [µM] | activation of WT BAK in liposome permeabilization assays (Human BAK-∆TM-His6 (BAK))
 |  |  | CC[C@H](C)[C@H](NC(=O)[C@H](CO)NC(=O)[C@H](CCCNC(=N)N)NC(=O)[C@H](CC(=O)O)NC(=O)[C@H](CCSC)NC(=O)[C@H](CO)NC(=O)[C@H](CC(=O)O)NC(=O)CNC(=O)[C@@H](NC(=O)[C@H](CCC(N)=O)NC(=O)[C@H](C)NC(=O)[C@H](CC(C)C)NC(=O)[C@H](Cc1c[nH]cn1)NC(=O)[C@H](CCCNC(=N)N)NC(=O)[C@H](C)NC(=O)[C@@H](NC(=O)[C@H](CC(N)=O)NC(=O)[C@H](CCCNC(=N)N)NC(=O)[C@@H](NC(=O)[C@@H](NC(=O)[C@H](CC(=O)O)NC(=O)[C@H](CCC(=O)O)NC(C)=O)[C@@H](C)CC)[C@@H](C)CC)[C@@H](C)CC)C(C)C)C(N)=O [WT BID BH3, reference compound] | neither peptide ligands could promote liposome permeabilization | ~ 130 µM | above 1 µM | 2.61±0.01 ×10-1 s-1 | 4190 ± 20 | 62300 ± 400 | 26.2±0.1 | 59 ± 12 | 17.777 | 10.071 | 10.975 | 14.842 | 13.692 | 17.854 | above 1 µM | 1 | 
35.8 ± 30.4 | 50 to 200 | potently activate WT BAK | CC[C@H](C)[C@H](NC(=O)[C@H](C)NC(=O)[C@H](CC(C)C)NC(=O)[C@H](CCC(N)=O)NC(=O)[C@H](CCCNC(=N)N)NC(=O)CNC(=O)[C@@H](NC(=O)[C@H](CCC(N)=O)NC(=O)CNC(=O)[C@H](CCSC)NC(=O)[C@@H](NC(=O)[C@H](CO)NC(=O)[C@H](CO)NC(C)=O)[C@@H](C)O)C(C)C)C(=O)N[C@H](C(=O)NCC(=O)N[C@@H](CC(=O)O)C(=O)N[C@@H](CC(=O)O)C(=O)N[C@H](C(=O)N[C@@H](CC(N)=O)C(=O)N[C@@H](CCCNC(=N)N)C(=O)N[C@@H](CCCNC(=N)N)C(=O)N[C@@H](Cc1ccc(O)cc1)C(N)=O)[C@@H](C)CC)[C@@H](C)CC [WT BAK BH3] | neither peptide ligands could promote liposome permeabilization | ~ 130 µM | above 1 µM |  |  | 67000 |  |  |  |  |  |  |  |  | above 1 µM | 0.1 | activates BAK in liposome permeabilization assays similarly to BID BH3
